Results reported in BigSolDB 2.1.

CS(N)(=O)=O
Details	solubility (mole fraction)
in ethanol, 283.13 K	0.0265
in ethanol, 288.18 K	0.0338
in ethanol, 293.14 K	0.0412
in ethanol, 298.17 K	0.0484
in ethanol, 302.16 K	0.0614
in ethanol, 308.16 K	0.0792
in ethanol, 313.06 K	0.1
in ethanol, 318.07 K	0.132
in ethanol, 323.16 K	0.181
in ethyl acetate, 283.26 K	0.0297
in ethyl acetate, 288.16 K	0.0329
in ethyl acetate, 293.2 K	0.0373
in ethyl acetate, 298.1 K	0.0419
in ethyl acetate, 303.18 K	0.0458
in ethyl acetate, 308.24 K	0.0507
in ethyl acetate, 313.17 K	0.0565
in ethyl acetate, 318.07 K	0.0627
in ethyl acetate, 323.16 K	0.0684
in isobutanol, 283.2 K	0.0117
in isobutanol, 288.14 K	0.0145
in isobutanol, 293.06 K	0.0174
in isobutanol, 298.36 K	0.0216
in isobutanol, 303.13 K	0.026
in isobutanol, 308.14 K	0.0309
in isobutanol, 313.04 K	0.0384
in isobutanol, 318.16 K	0.0481
in isobutanol, 323.04 K	0.0592
in isopentanol, 283.16 K	0.00502
in isopentanol, 288.14 K	0.00747
in isopentanol, 293.16 K	0.0108
in isopentanol, 298.17 K	0.0138
in isopentanol, 303.05 K	0.018
in isopentanol, 308.06 K	0.0228
in isopentanol, 313.15 K	0.0288
in isopropanol, 283.06 K	0.0139
in isopropanol, 288.17 K	0.0178
in isopropanol, 293.14 K	0.0221
in isopropanol, 298.08 K	0.0277
in isopropanol, 303.06 K	0.0333
in isopropanol, 308.14 K	0.044
in isopropanol, 313.14 K	0.0556
in isopropanol, 318.16 K	0.0704
in isopropanol, 323.04 K	0.0917
in isopropyl acetate, 283.27 K	0.0099
in isopropyl acetate, 288.14 K	0.0112
in isopropyl acetate, 293.16 K	0.0127
in isopropyl acetate, 298.34 K	0.0148
in isopropyl acetate, 303.13 K	0.0169
in isopropyl acetate, 308.1 K	0.0195
in isopropyl acetate, 313.3 K	0.0219
in isopropyl acetate, 318.22 K	0.0251
in isopropyl acetate, 323.27 K	0.0294
in methanol, 283.27 K	0.0738
in methanol, 288.1 K	0.0884
in methanol, 293.2 K	0.108
in methanol, 298 K	0.133
in methanol, 303.3 K	0.163
in methanol, 308.36 K	0.2
in methanol, 313.13 K	0.243
in methanol, 318.1 K	0.286
in methanol, 322.2 K	0.33
in methyl propionate, 283.27 K	0.0251
in methyl propionate, 288.27 K	0.026
in methyl propionate, 293.06 K	0.0291
in methyl propionate, 298.14 K	0.0324
in methyl propionate, 303.36 K	0.036
in n-butanol, 283.1 K	0.0117
in n-butanol, 288.2 K	0.0131
in n-butanol, 293.18 K	0.015
in n-butanol, 298.16 K	0.0172
in n-butanol, 303.26 K	0.0218
in n-butanol, 308.06 K	0.027
in n-pentanol, 283.14 K	0.00546
in n-pentanol, 288.13 K	0.00713
in n-pentanol, 293.14 K	0.00998
in n-pentanol, 298.12 K	0.0156
in n-pentanol, 303.06 K	0.0219
in n-propanol, 283.16 K	0.0125
in n-propanol, 288.14 K	0.0153
in n-propanol, 293.08 K	0.0185
in n-propanol, 298.14 K	0.0213
in n-propanol, 303.12 K	0.0296
in n-propanol, 308.24 K	0.0375
in n-propanol, 313.18 K	0.0471
in n-propanol, 318.24 K	0.0608
in n-propanol, 323.24 K	0.08
in n-propyl acetate, 283.07 K	0.0114
in n-propyl acetate, 288.13 K	0.0125
in n-propyl acetate, 293.26 K	0.0141
in n-propyl acetate, 298.04 K	0.0163
in n-propyl acetate, 303.14 K	0.0185
in n-propyl acetate, 308.04 K	0.0214
in n-propyl acetate, 313 K	0.0243
in n-propyl acetate, 318.07 K	0.028
in n-propyl acetate, 323.17 K	0.0322
in sec-butanol, 283.3 K	0.00628
in sec-butanol, 288.14 K	0.0112
in sec-butanol, 293.13 K	0.0166
in sec-butanol, 298.06 K	0.0224
in sec-butanol, 303.1 K	0.0284
in sec-butanol, 308.26 K	0.036
in sec-butanol, 313.06 K	0.0459
